US12077503B2, “Substituted cyclic amides and their use as herbicides” (FMC CORPORATION, priority 2015, dated 2024)

Experiments:
Format in all cases: in vivo
[1] = tested on: ivy-leaved morning glory (Ipomoea hederacea); assay: Test G Pre-Emergence Protocol; conditions: Ipomoea, pre-emergence, 312 h, evaluated after 13 days
Procedure, shortened: (§1)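 Spraying took place one day after sowing, at 15.625, 62.5 or 250 g/ha, using an acetone/water (50:50) spray solution containing 0.5% Tween 20. Plants were kept under glasshouse conditions (24/16 °C, 14 h light, 65% humidity, watered twice daily), and injury was rated 0–100 at day 13.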

[2] = tested on: velvetleaf (Abutilon theophrasti); assay: Test G Pre-Emergence Protocol; conditions: Abutilon theophrasti, pre-emergence, 312 h, evaluated after 13 days
Procedure, shortened: as §1

[3] = tested on: barnyardgrass (Echinochloa crus-galli); assay: Test G Pre-Emergence Protocol; conditions: Echinochloa crus-galli, pre-emergence, 312 h, evaluated after 13 days
Procedure, shortened: as §1

[4] = tested on: giant foxtail (Setaria faberi); assay: Test G Pre-Emergence Protocol; conditions: Setaria faberi, pre-emergence, 312 h, evaluated after 13 days
Procedure, shortened: as §1

[5] = tested on: corn (Zea mays); assay: Test G Pre-Emergence Protocol; conditions: Zea mays, pre-emergence, 312 h, evaluated after 13 days
Procedure, shortened: as §1

[6] = tested on: redroot pigweed (Amaranthus retroflexus); assay: Test G Pre-Emergence Protocol; conditions: Amaranthus retroflexus, pre-emergence, 312 h, evaluated after 13 days
Procedure, shortened: as §1

[7] = tested on: ivy-leaved morning glory (Ipomoea hederacea); assay: Test G Post-Emergence Protocol; conditions: Ipomoea, post-emergence, 312 h, read-out: Morningglory, Ivy-leaved damage rating
Procedure, shortened: (§2)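 Eight days post-sowing, plants received a spray of test compound (acetone/water 50:50, 0.5% Tween 20) at 15.625, 62.5 or 250 g/ha. Glasshouse regime thereafter: 24/16 °C, 14 h light, 65% humidity. Assessment after 13 days on a 0–100 damage scale.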

[8] = tested on: velvetleaf (Abutilon theophrasti); assay: Test G Post-Emergence Protocol; conditions: Abutilon theophrasti, post-emergence, 312 h, read-out: Velvetleaf damage rating
Procedure, shortened: as §2

[9] = tested on: barnyardgrass (Echinochloa crus-galli); assay: Test G Post-Emergence Protocol; conditions: Echinochloa crus-galli, post-emergence, 312 h, read-out: Barnyardgrass damage rating
Procedure, shortened: as §2

[10] = tested on: giant foxtail (Setaria faberi); assay: Test G Post-Emergence Protocol; conditions: Setaria faberi, post-emergence, 312 h, read-out: Foxtail, Giant damage rating
Procedure, shortened: as §2

[11] = tested on: corn (Zea mays); assay: Test G Post-Emergence Protocol; conditions: Zea mays, post-emergence, 312 h, read-out: Corn damage rating
Procedure, shortened: as §2

[12] = tested on: redroot pigweed (Amaranthus retroflexus); assay: Test G Post-Emergence Protocol; conditions: Amaranthus retroflexus, post-emergence, 312 h, read-out: Pigweed, Redroot damage rating
Procedure, shortened: as §2

[13] = 15.625 g ai/ha, evaluated after 13 days (100=total damage to plant; 0=no damage to plant)
[14] = 62.5 g ai/ha, evaluated after 13 days, 100=total damage to plant, 0=no damage to plant
[15] = 250 g ai/ha, evaluated after 13 days, 100=total damage to plant, 0=no damage to plant

Cc1c[nH]nc1NC(=O)[C@@H]1C(=O)N(C)C[C@H]1c1ccc(C(F)(F)F)cc1 (racemic) [Compound 1660]
0%: pest or weed control at 15.625 g/ha ([1]; 15.625 g ai/ha, read-out: Morningglory, Ivy-leaved damage rating (100=total damage to plant; 0=no damage to plant)) | pest or weed control at 62.5 g/ha ([1]; 62.5 g ai/ha, 100=total damage to plant, 0=no damage to plant, read-out: Morningglory, Ivy-leaved damage rating) | pest or weed control at 250 g/ha ([1]; 250 g ai/ha, read-out: Morningglory, Ivy-leaved damage rating (100=total damage to plant; 0=no damage to plant)) | pest or weed control at 15.625 g/ha ([2]; 15.625 g ai/ha, read-out: Velvetleaf damage rating (100=total damage to plant; 0=no damage to plant)) | pest or weed control at 62.5 g/ha ([2]; 62.5 g ai/ha, 100=total damage to plant, 0=no damage to plant, read-out: Velvetleaf damage rating) | pest or weed control at 250 g/ha ([2]; 250 g ai/ha, read-out: Velvetleaf damage rating (100=total damage to plant; 0=no damage to plant)) | pest or weed control at 15.625 g/ha ([3]; 15.625 g ai/ha, read-out: Barnyardgrass damage rating (100=total damage to plant; 0=no damage to plant)) | pest or weed control at 62.5 g/ha ([3]; 62.5 g ai/ha, 100=total damage to plant, 0=no damage to plant, read-out: Barnyardgrass damage rating) | pest or weed control at 250 g/ha ([3]; 250 g ai/ha, read-out: Barnyardgrass damage rating (100=total damage to plant; 0=no damage to plant)) | pest or weed control at 15.625 g/ha ([4]; 15.625 g ai/ha, read-out: Foxtail, Giant damage rating (100=total damage to plant; 0=no damage to plant)) | pest or weed control at 62.5 g/ha ([4]; 62.5 g ai/ha, 100=total damage to plant, 0=no damage to plant, read-out: Foxtail, Giant damage rating) | pest or weed control at 250 g/ha ([4]; 250 g ai/ha, read-out: Foxtail, Giant damage rating (100=total damage to plant; 0=no damage to plant)) | plant injury at 15.625 g/ha ([5]; 15.625 g ai/ha, read-out: Corn damage rating (100=total damage to plant; 0=no damage to plant)) | plant injury at 62.5 g/ha ([5]; 62.5 g ai/ha, 100=total damage to plant, 0=no damage to plant, read-out: Corn damage rating) | plant injury at 250 g/ha ([5]; 250 g ai/ha, read-out: Corn damage rating (100=total damage to plant; 0=no damage to plant)) | pest or weed control at 15.625 g/ha ([6]; 15.625 g ai/ha, read-out: Pigweed, Redroot damage rating (100=total damage to plant; 0=no damage to plant)) | pest or weed control at 62.5 g/ha ([6]; 62.5 g ai/ha, 100=total damage to plant, 0=no damage to plant, read-out: Pigweed, Redroot damage rating) | pest or weed control at 250 g/ha ([6]; 250 g ai/ha, read-out: Pigweed, Redroot damage rating (100=total damage to plant; 0=no damage to plant)) | pest or weed control at 15.625 g/ha [7, 13] | pest or weed control at 62.5 g/ha [7, 14] | pest or weed control at 250 g/ha [7, 15] | pest or weed control at 15.625 g/ha [8, 13] | pest or weed control at 62.5 g/ha [8, 14] | pest or weed control at 250 g/ha [8, 15] | pest or weed control at 15.625 g/ha [9, 13] | pest or weed control at 62.5 g/ha [9, 14] | pest or weed control at 250 g/ha [9, 15] | pest or weed control at 15.625 g/ha [10, 13] | pest or weed control at 62.5 g/ha [10, 14] | pest or weed control at 250 g/ha [10, 15] | plant injury at 15.625 g/ha [11, 13] | plant injury at 62.5 g/ha [11, 14] | plant injury at 250 g/ha [11, 15] | pest or weed control at 15.625 g/ha [12, 13] | pest or weed control at 62.5 g/ha [12, 14] | pest or weed control at 250 g/ha [12, 15]
